According to ChEMBL document CHEMBL1138979, “From pyrroles to pyrrolo[1,2-a]pyrazinones: a new class of mGluR1 antagonists” (Bioorg Med Chem Lett, 2006):

Target: T1, Metabotropic glutamate receptor 1 (Rattus norvegicus, UniProt P23385)
Assay: Inhibition of rat mGluR1a in CHO cells by CDP-DAG accumulation method upto 100 uM; call rule not given here
Format: functional, cell-based

T1 sequence (P23385 whole entry): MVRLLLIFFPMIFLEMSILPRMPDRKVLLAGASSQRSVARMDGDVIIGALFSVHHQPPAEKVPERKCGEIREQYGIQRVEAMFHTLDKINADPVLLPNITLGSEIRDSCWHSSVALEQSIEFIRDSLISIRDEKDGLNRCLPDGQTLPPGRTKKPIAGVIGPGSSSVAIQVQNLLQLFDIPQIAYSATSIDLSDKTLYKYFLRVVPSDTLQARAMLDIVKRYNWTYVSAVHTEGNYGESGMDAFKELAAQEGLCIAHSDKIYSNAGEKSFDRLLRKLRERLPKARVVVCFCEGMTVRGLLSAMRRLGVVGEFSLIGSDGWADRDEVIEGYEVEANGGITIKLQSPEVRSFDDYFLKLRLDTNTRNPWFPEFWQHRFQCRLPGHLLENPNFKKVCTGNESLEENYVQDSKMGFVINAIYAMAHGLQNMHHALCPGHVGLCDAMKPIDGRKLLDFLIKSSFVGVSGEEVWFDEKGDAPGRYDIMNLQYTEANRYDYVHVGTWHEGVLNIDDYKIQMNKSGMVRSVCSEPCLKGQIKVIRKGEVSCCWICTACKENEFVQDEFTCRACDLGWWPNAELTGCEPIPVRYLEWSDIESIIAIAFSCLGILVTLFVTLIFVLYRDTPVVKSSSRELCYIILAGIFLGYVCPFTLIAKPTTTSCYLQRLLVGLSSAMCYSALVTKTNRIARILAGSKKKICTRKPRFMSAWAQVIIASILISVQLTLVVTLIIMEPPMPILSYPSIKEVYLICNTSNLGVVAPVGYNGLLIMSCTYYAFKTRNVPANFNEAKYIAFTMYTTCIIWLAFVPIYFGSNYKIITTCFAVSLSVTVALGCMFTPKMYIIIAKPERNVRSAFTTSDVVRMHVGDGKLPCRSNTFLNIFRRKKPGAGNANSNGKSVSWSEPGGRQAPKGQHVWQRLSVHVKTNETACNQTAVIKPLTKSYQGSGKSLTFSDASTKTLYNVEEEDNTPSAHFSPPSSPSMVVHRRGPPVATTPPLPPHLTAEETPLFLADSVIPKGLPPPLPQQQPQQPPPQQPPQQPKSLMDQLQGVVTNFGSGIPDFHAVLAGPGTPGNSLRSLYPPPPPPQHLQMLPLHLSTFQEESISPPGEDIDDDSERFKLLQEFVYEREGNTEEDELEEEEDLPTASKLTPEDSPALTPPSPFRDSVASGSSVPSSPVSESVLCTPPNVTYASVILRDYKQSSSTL

IC50 | SMILES
Not Active | Cc1c(C(=O)OC(C)C(C)(C)C)cn2c1C(=O)N(CCCN)CC2 (stereo unspecified)
Not Active | Cc1c(C(=O)OC(C)C(C)(C)C)cn2c1C(=O)NCC2 (stereo unspecified)

Target: T1, Metabotropic glutamate receptor 1
Assay: Inhibition of rat mGluR1a in CHO cells by CDP-DAG accumulation method
Format: functional, cell-based

SMILES | IC50 [µM]
Cc1c(C(=O)OC(C)C(C)(C)C)cn2c1C(=O)N(CCCN(C)C(=O)c1ccncc1)CC2 (stereo unspecified) | 3.16
CCNC(=O)NCCCN1CCn2cc(C(=O)OC(C)C(C)(C)C)c(C)c2C1=O (stereo unspecified) | 0.398
COCCN1CCn2cc(C(=O)OC(C)C(C)(C)C)c(C)c2C1=O (stereo unspecified) | 0.251
Cc1c(C(=O)OC(C)C(C)(C)C)cn2c1C(=O)N(Cc1ccccc1)CC2 (stereo unspecified) | 0.251
CC(=O)NCCCN1CCn2cc(C(=O)OC(C)C(C)(C)C)c(C)c2C1=O (stereo unspecified) | 0.501
Cc1c(C(=O)OC(C)C(C)(C)C)cn2c1C(=O)N(CCCNC(=O)c1ccncc1)CC2 (stereo unspecified) | 0.398
Cc1c(C(=O)OC(C)C(C)(C)C)cn2c1C(=O)N(CCCN1C(=O)c3ccccc3C1=O)CC2 (stereo unspecified) | 0.0158
CCCN1CCn2cc(C(=O)OC(C)C(C)(C)C)c(C)c2C1=O (stereo unspecified) | 0.0398
Cc1c(C(=O)OC(C)C(C)(C)C)cn2c1C(=O)N(CC1CC1)CC2 (stereo unspecified) | 0.02

Results, then the molecule that gave them:

IC50 [µM] | SMILES
0.398 | Cc1c(C(=O)OC(C)C(C)(C)C)cn2c1C(=O)N(CCNC(=O)OC(C)(C)C)CC2 (stereo unspecified)
0.02 | C=CCN1CCn2cc(C(=O)OC(C)C(C)(C)C)c(C)c2C1=O (stereo unspecified)
3.16 | Cc1c(C(=O)OC(C)C(C)(C)C)cn2c1C(=O)N(N1CCOCC1)CC2 (stereo unspecified)
0.02 | Cc1c(C(=O)OC(C)C(C)(C)C)cn2c1C(=O)N(CCF)CC2 (stereo unspecified)
0.0251 | Cc1c(C(=O)OC(C)C(C)(C)C)cn2c1C(=O)N(CC(F)F)CC2 (stereo unspecified)
